The source of these data is US20040251215A1, “Method for killing organicsms in the course of conveying ballast water in ships and apparatus thereof” (priority 2003, published 2004).

A short description of series [1]: Decomposition of residual hydroxyl radicals. In kind it is physicochemical. As to conditions: treated ballast water. The procedure: The residual hydroxyl radicals were decomposed after 20 min into H2O, O2 and the like and there was no any residual chemical reagent left. Therefore the method for treating ballast water by using hydroxyl radicals solution is a green effective method.

For series [2], the system named is single cell alga. Nature of the series: Test of elimination of single cell alga in seawater (ballast water) by hydroxyl radical solution. In kind it is cell-based. As to conditions: OH concentration 0.63 mg/L. The text has this: (§1) Free radical generator of the present invention was made of anode electrode 22, cathode electrode 21, dielectric substance layer 24 and septum 23. Strong electric field of 250-600 Td was formed between the anode electrode and cathode electrode. […] The undissolved free radicals were removed by residual free radical treater 13. High frequency electric source made from transformer 5, invertor 6 and controller 7 was used to supply electric source to free radical generator 3. Free radical concentration measuring apparatus 4 was used to measure the concentration of free radical produced while the hydroxyl radical solution concentration analyzer 14 was used to measure the concentration of hydroxyl radical solution. Untreated ballast water was suctioned by pump 19 into conveying pipe and filtered by filter 16 (FIG. 2). A part of them was taken out and was processed by free radical generating unit 15 into hydroxyl radical solution which was then mixed in liquid-liquid mixer 20 with ballast water conveyed in pipe and flowed through flow meter 17 and valve 18. The effectiveness of the elimination of single cell alga, protozoans and bacteria was illustrated in Table 1.

In series [3] the test system is Bacteria. Nature of the series: Test of elimination of bacteria in seawater (ballast water) by hydroxyl radical solution. Type of series: cell-based. As to conditions: OH concentration 0.63 mg/L.
Text: as §1

In series [4] the test system is bacteria, single cell alga, protozoan, spore and vibrio. The experiment in a line: Time and concentration needed to kill microorganisms in ballast water by hydroxyl radical. Type of series: cell-based.
Text: as §1
The time necessary for elimination of single cell alga, protozoan, bacteria and the like was extremely short. […]

The subject of series [5] is Protozoan. The experiment in a line: Test of elimination of protozoan in seawater (ballast water) by hydroxyl radical solution. In kind it is cell-based. As to conditions: OH concentration 0.63 mg/L.
Text: as §1

Regarding hydroxyl radical [OH], the “time after which residual hydroxyl radicals were decomposed into H2O, O2” value in series [1] amounted to 20 min. Besides, the Lethality in series [2], in series [3] and in series [5] was 100% in each case. In addition, the Microorganism concentration result in series [2] (untreated 6.0 × 10^4), in series [3] (untreated 1.9 × 10^5) and in series [5] (untreated 4.4 × 10^4) was “not detectable” each time. In addition, the “time needed for elimination of microorganism” value in series [4] (from curve of time against lethality, FIG. 4) was “about 4 s”. For the same substance, the “concentration at which killing is feasible” value in series [4] (single cell alga, protozoan, spore, bacteria, vibrio in ballast water) fell in the range of 0.6 to 0.7 mg/L.
